For one assay, the target named is T1, D3R (Homo sapiens, UniProt P35462).
T1 construct: purchased Perkin Elmer ES-173M400UA
The assay is described as follows: D3R competition binding ([3H]-spiperone). Conditions: mean±SEM of two experiments in duplicate; read-out: D3R binding affinity Ki. The procedure:
samples were filtered and washed four times with 250 µl wash buffer (50 mM Tris-HCl, 0.9% NaCl, pH=7.4) before measuring in a microplate beta scintillation counter (Microbeta Trilux, PerkinElmer, Madrid, Spain). Three independent exp eriments were carried out to calculate Ki values (n=3).
Human A1AR competition binding experiments were carried out in multiscreen GF/C 96 -well plates (Millipore, Madrid, Spain) pretreated with assay buffer ( 20 mM Hepes, 100 mM NaCl, 10 mM MgCl2, 2 U/ml adeno sine deamina se, pH=7.4). Each well contained 5 µg of membranes from a CHO-A1AR cell line, 1 nM [3H]-DPCPX (137 Ci/mmol, 1 mCi/Ml, Perkin Elmer NET974001MC), and the compound studied. Non-specific binding was determined in the presence of R-PIA 10 µM (Sigma P4532). The reaction mixture (200 µl/well) was incubated at 25°C for 60 min. The samples were then filtered and washed four times with 250 µl wash buffer (20 mM Hepes, 100 mM NaCl, 10 mM MgCl2, pH=7.4) before measuring in a microplate beta scintillati on counter (Microbeta Trilux, PerkinElmer, Madrid, Spain). Two independent experiments were carried out to calculate K i values (n=2).
D3R competition binding experiments were carried out in polypropylene 96 -well plate s. Each well contained 2 µg of membranes from a D3R cell line (Perkin Elmer, ES-173M400UA, protein concentration=1000 µg/ml), 1 nM [3H]-spiperone (68 Ci/mmol, 1 mCi/ml, Perkin Elmer NET1187001MC), and the compound studied. Non-specific binding was determined in the presence of 1 µ M haloperidol (Sigma H1512). The reaction mixture (250 µl/well) was incubated at 25 °C for 60 min, after which 200 µL was transferred to GF/C 96-well plates (Millipore, Madrid, Spain) pretreated with 0. […]
D4R competition binding experiments were carried out in polypropylene 96 -well plate s. […] Non-specific binding was determined in the presence of 25 µM haloperidol (Sigma H1512). […]
H1R competition binding experiments were carried out in polypropylene 96-well plates. […] Non-specific binding was determined in the presence of 10 µM triprolidine (T6764, Sigma Aldrich). […]

The target of a further assay is T2, D4R (Homo sapiens, UniProt P21917, DEL265-296).
T2 sequence (P21917 with tags, fused parts or gaps DEL265-296): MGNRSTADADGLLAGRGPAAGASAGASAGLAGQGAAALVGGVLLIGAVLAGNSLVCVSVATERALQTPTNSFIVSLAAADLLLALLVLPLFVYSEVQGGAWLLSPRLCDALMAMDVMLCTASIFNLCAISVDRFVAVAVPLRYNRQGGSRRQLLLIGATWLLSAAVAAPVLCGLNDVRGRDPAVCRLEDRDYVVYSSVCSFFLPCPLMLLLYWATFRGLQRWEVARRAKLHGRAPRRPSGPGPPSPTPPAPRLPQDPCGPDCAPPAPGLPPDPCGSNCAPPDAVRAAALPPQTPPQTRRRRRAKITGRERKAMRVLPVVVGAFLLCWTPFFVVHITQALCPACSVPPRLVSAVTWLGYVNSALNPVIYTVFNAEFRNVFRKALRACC
The assay is described as follows: D4R competition binding ([3H]-spiperone). As to conditions: for inhibition at 10 µM: 2 h, 10 µM compound, n=2, read-out: D4R % displacement at 10 µM; for Ki: mean±SEM of two experiments in duplicate, read-out: D4R binding affinity Ki. The method, then: D4R competition binding experiments were carried out in polypropylene 96 -well plate s. Each well contained 35 µg of membranes from a CHO-D4R cell line (Perkin Elmer, RBHD42M400U A, protein concentration=14000 µg/ml), 1 nM [3H]-spiperone (68 Ci/mmol, 1 mCi/ml, Perkin Elmer NET1187001MC), and the compound studied. Non-specific binding was determined in the presence of 25 µM haloperidol (Sigma H1512). The reaction mixture (250 µl/well) was incubated at 27 °C for 120 min, after which 200 µL was transferred to GF/C 96-well plates (Millipore, Madrid, Spain) pretreated with 0.5% PEI and treated with binding buffer (50 mM Tris-HCl, 1 mM EDTA, 5 mM MgCl2, 5 mM KCl, 120 mM NaCl, pH=7.4). The samples were filtered and washed f our times with 250 µl wash buffer (50 mM Tris-HCl, 0.9% NaCl, pH=7.4) before measuring in a microplate beta scintillation counter (Microbeta Trilux, PerkinElmer, Madrid, Spain). Two independent experiments were carried out to calculate Ki values (n=2). […]

A word on the Ki: it is a measure of affinity in units of concentration, obtained from inhibition or displacement.

T1 sequence (P35462 whole entry): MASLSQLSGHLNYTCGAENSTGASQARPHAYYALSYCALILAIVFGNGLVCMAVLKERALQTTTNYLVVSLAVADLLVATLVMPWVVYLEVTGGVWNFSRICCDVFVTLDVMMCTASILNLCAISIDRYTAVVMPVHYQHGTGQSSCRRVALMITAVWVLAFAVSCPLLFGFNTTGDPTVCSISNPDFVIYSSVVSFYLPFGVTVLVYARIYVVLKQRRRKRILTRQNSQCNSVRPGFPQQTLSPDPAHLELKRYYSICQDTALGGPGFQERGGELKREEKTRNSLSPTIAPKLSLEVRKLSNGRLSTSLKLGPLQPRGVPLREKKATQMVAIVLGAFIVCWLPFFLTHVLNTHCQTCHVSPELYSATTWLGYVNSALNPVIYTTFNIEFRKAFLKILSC

For the compound `CCCN(CCCCC(=O)Nc1nc2c(OC)ccc(OC)c2s1)C1Cc2ccccc2C1` [Compound 30], on D3R, the inhibition constant Ki stood at 56 ± 7 nM. On D4R, the inhibition at 10 µM turned out to be 19 ± 4% and the Ki was more than 10000 nM.
For `CCN(CCCCC(=O)Nc1nc2c(Br)cccc2s1)C1Cc2ccccc2C1` [Compound 22], the inhibition constant Ki on D3R came out at 21 ± 6 nM. Further, the inhibition at 10 µM at D4R stood at 19 ± 1%.
As to `CCCN(CCCCC(=O)Nc1nc2c(OC)cccc2s1)C1Cc2ccccc2C1` [Compound 26], the Ki is 21 ± 2 nM at D3R and 700 ± 80 nM on D4R.
As for `CCCN(CCCCC(=O)Nc1nc2c(Br)cccc2s1)C1Cc2ccccc2C1` [Compound 27], the inhibition at 10 µM on D4R is 27 ± 4%.

These data come from article PMC8456950, “Structure‐Guided Design of G‐Protein‐Coupled Receptor Polypharmacology” (Angewandte Chemie (International Ed. in English), 2021).
